Data from patent publication US20180171411A1, “GFRalpha1 AS A BIOMARKER FOR CISPLATIN-INDUCED CHEMORESISTANCE AND METASTASIS” (THE BOARD OF REGENTS OF THE UNIVERSITY OF TEXAS SYSTEM, priority 2015, published 2018).
Peptide text beside a SMILES is read from it. * marks the point of attachment. Cbz = O=C(OCc1ccccc1)*; CH2F = FC*

What was measured:
Assay type in all cases: cell-based, human
[1] = tested on: LC3-II in GFRα1-overexpressing MG-63 cells; assay: Immunoblot of LC3-II in GFRα1-overexpressing cells; details: 3-MA (10 μM) or Baf (100 nM)
Method: FIG. 3. GFRα1-induced autophagy enhances the chemoresistance of osteosarcoma cells induced by cisplatin. (a) Control and GFRα1-deficient MG-63 cells were transiently transfected with a mRFP-GFP tandem fluorescent-tagged LC3 (mRFP-GFP-LC3) vector and then treated with cisplatin (20μM) for 24 hr. Left, representative images of RFP-LC3 and GFP-LC3 puncta. Scale bar, 20 μm. Right, quantitative analysis of the number of yellow puncta and the number of RFP-LC3 puncta in the combined images. The values are represented as a mean±s.d.m. (n=3). ** denotes p<0.05 by t-test. (b) Control and GFRα1-deficient MG-63 cells were treated with cisplatin (20 μM) for 24 hr and then stained with acridine orange. […] Bottom, quantitative analysis of the number of AVOs. […] (c) Control and GFRα1-deficient MG-63 cells were treated with cisplatin (20 μM) for 24 hr and then analyzed by TEM. Top, representative images of autophagic vacuoles (yellow arrows) detected after cisplatin treatment in control MG-63 cells. […] Bottom, quantitative analysis of the number of autophagic vacuoles. […] (e) Quantitative analysis of the number of yellow puncta and the number of RFP-LC3 puncta in control and GFRα1-overexpressing MG-63 cells. […] Bottom, quantitative analysis of the number of AVOs. […] (h) Control and GFRα1-overexpressing MG-63 cells were treated with cisplatin (20 μM) for 24 hr and then analyzed by TEM. […]

[2] = tested on: GFRα1-overexpressing MG-63 cells; assay: WST-1 cell viability of GFRα1-overexpressing osteosarcoma cells; details: with DMSO, 3-MA or Baf, then cisplatin 20 μM 24 hr
Method: FIG. 3. GFRα1-induced autophagy enhances the chemoresistance of osteosarcoma cells induced by cisplatin. (a) Control and GFRα1-deficient MG-63 cells were transiently transfected with a mRFP-GFP tandem fluorescent-tagged LC3 (mRFP-GFP-LC3) vector and then treated with cisplatin (20μM) for 24 hr. Left, representative images of RFP-LC3 and GFP-LC3 puncta. Scale bar, 20 μm. Right, quantitative analysis of the number of yellow puncta and the number of RFP-LC3 puncta in the combined images. The values are represented as a mean±s.d.m. (n=3). ** denotes p<0.05 by t-test. (b) Control and GFRα1-deficient MG-63 cells were treated with cisplatin (20 μM) for 24 hr and then stained with acridine orange. Top, representative images of cells stained with acridine orange. Scale bar, 20 μm. Bottom, quantitative analysis of the number of AVOs. The values are represented as a mean±s.d.m. (n=3). ** denotes p<0.05 by t-test. (c) Control and GFRα1-deficient MG-63 cells were treated with cisplatin (20 μM) for 24 hr and then analyzed by TEM. Top, representative images of autophagic vacuoles (yellow arrows) detected after cisplatin treatment in control MG-63 cells. Scale bar, 100 nm. Bottom, quantitative analysis of the number of autophagic vacuoles. The values are represented as a mean±s.d.m. (n=3). ** denotes p<0.05 by t-test. (d) Immunoblot analysis of control and GFRα1-overexpressing osteosarcoma cell lysates with antibodies specific for GFRα1, LC3 and β-actin. […] (e) Quantitative analysis of the number of yellow puncta and the number of RFP-LC3 puncta in control and GFRα1-overexpressing MG-63 cells. […] Bottom, quantitative analysis of the number of AVOs. […] (h) Control and GFRα1-overexpressing MG-63 cells were treated with cisplatin (20 μM) for 24 hr and then analyzed by TEM. Top, representative images of autophagic vacuoles detected after cisplatin treatment in control and GFRα1-overexpressing MG-63 cells. […] Bottom, quantitative analysis of the number of autophagic vacuoles. […] Cell viability was measured using the WST-1 assay. […] Cell viability was measured using the WST-1 assay. […]

[3] = tested on: GFRα1-overexpressing MG-63 clone #4; assay: Colony-forming assay in the presence of cisplatin; details: cisplatin 20 μM 10 days; 3-MA (10 μM), Baf (100 nM), CQ (30 μg/ml)
Description: FIG. 3. […] Scale bar, 20 μm. […] Scale bar, 20 μm. […] Scale bar, 20 μm.

[4] = tested on: Caspase-3 activity in control and GFRα1-deficient MG-63 cells; assay: Caspase-3 activity (Colorimetric CaspACE assay); details: cisplatin 20 μM 24 hr, ZVAD-FMK 50 μM
Description: FIG. 2. GFRα1 suppresses the chemosensitivity of osteosarcoma cells induced by cisplatin. (a) Generation of GFRα1-deficient osteosarcoma cell lines with GFRα1 shRNA. Both MG-63 and U-2 OS cells were transfected with control or GFRα1 shRNA. Immunoblot analysis of control and GFRα1-deficient stable osteosarcoma cell lysates with antibodies specific for GFRα1 and β-actin. (b) Cell viability of GFRα1-deficient osteosarcoma cells after cisplatin treatment. Control or GFRα1-deficient cells were cultured and treated with different concentrations of cisplatin for 24 hr. Cell viability was measured using the WST-1 assay. The values are represented as a mean±s.d.m. (n=3). ** denotes p<0.05 by t-test. (c) Apoptotic response of GFRα1-deficient osteosarcoma cells after cisplatin treatment. […] Apoptotic cells by FITC-Annexin V staining (top) and viable cells by PI staining (bottom) were analyzed through flow cytometry. […] Cell viability was measured using the WST-1 assay. […] Apoptotic cells by FITC-Annexin V staining (top) and viable cells by PI staining (bottom) were analyzed through flow cytometry. […]
Apoptosis Assays. […] Apoptotic cells were analyzed using a FACSCalibur flow cytometer with CellQuest software (Becton Dickinson, Franklin Lakes, N.J.). […] Caspase 3 activity was analyzed by the Colorimetric CaspACE™ Assay System (Promega, Madison, Wis.) according the manufacturer's instructions. […]

| Compound | level of LC3-II expression [1] | increase of cell proliferation in GFRα1 overexpressing cells [2] | number of colonies [3] | Caspase-3 activity increase in cisplatin-treated GFRα1-deficient MG-63 cells [4] |
| --- | --- | --- | --- | --- |
| CO/C1=C\C(C)=C\[C@@H](C)[C@@H](O)[C@@H](C)C/C(C)=C/C=C/[C@H](OC)[C@@H]([C@@H](C)[C@@H](O)[C@H](C)[C@@]2(O)C[C@@H](O)[C@H](C)[C@@H](C(C)C)O2)OC1=O [Baf, bafilomycin A1] | increased | not | effectively reduced | – |
| COC(=O)C[C@H](NC(=O)[C@H](C)NC(=O)[C@@H](NC(=O)OCc1ccccc1)C(C)C)C(=O)CF [ZVAD-FMK] (Cbz-Val-Ala-Asp(OMe)-CH2F) | – | – | – | reversed this effect |
